Consider three molecules from PMC10831447 (Molecular Cancer Therapeutics, 2023).

Data set [1] relates to 25 RCC PDX models. Kind of data set: RCC PDX in vivo study, all models. Also noted: species or system mouse.
Data set [2] concerns A549 wild-type. Kind of data set: Colony formation assay. The data set is classed as cell-based, human. As to conditions: 1E−05, 2.5E−06, 5E−07 mol/L.
The conditions of data set [3]: cited from earlier work.
In data set [4] the test system is A549 p53 KO. Kind of data set: Colony formation assay. The data set is classed as cell-based, human. As to conditions: isogenic A549 TP53 KO; 1E−05, 2.5E−06, 5E−07 mol/L.
The subject of data set [5] is A549 p53 KO. The data set is described as follows: Cell-cycle analysis by FACS. Format: cell-based, human. As to conditions: A549 TP53 KO; M8891 1E−06 mol/L, nutlin-3A 3E−06 mol/L.
Data set [6] relates to A549 wild-type. Kind of data set: Cell-cycle analysis by FACS. Format: cell-based, human. As to conditions: A549 parental; 24 hours; M8891 1E−06 mol/L, nutlin-3A 3E−06 mol/L.

For the molecule `CCN(CC)CCNC(=O)c1c(C)[nH]c(/C=C2\C(=O)Nc3ccc(F)cc32)c1C` [Sunitinib], the “integrated survival analysis based on RTV changes (AUC)” value in data set [1] (across all 25 PDX models) is reported as “clear survival benefit”. For the same molecule, in data set [1] (dose and schedule tested in this study), the “antitumor activity in cohort of 25 RCC PDX models” value is “moderate”.

With `CO[C@@H]1[C@H](OC(=O)NC(=O)CCl)CC[C@]2(CO2)[C@H]1[C@@]1(C)O[C@@H]1CC=C(C)C` [TNP-470], in data set [2], the colony formation entry is given as “blocked”. In data set [3], the elimination entry was “rapid elimination” and the side effects entry is listed as “neurologic side effects”. In addition, the colony formation result in data set [4] is given as “resistant”.

For `COc1ccc(C2=N[C@@H](c3ccc(Cl)cc3)[C@@H](c3ccc(Cl)cc3)N2C(=O)N2CCNC(=O)C2)c(OC(C)C)c1` [nutlin-3A], the results for the colony formation entry in data set [2] and in data set [4] were “significantly reduced colony formation” and “resistant”, respectively. Besides, the “shift in cell-cycle distribution” value in data set [5] was “not observed”. In addition, in data set [6], the cell-cycle distribution result is “more prominent arrest in G2–M”.
